Assay results published in US7390797B2, “Fused indazole compounds” (Eisai Co., Ltd., priority 2002, dated 2008).

Target: T1, Human JNK 3 (Homo sapiens, UniProt P53779)
T1 construct: made in house; host or cells: Escherichia coli
Experiment: Determination of JNK 3 Inhibition
Assay type: biochemical
Conditions: GST-JNK 3 enzyme, GST-c-Jun (1-169) substrate, [γ-33P]ATP, 3.33 μM ATP, 30 minutes, SPA beads
Method: Test Example 1 Determination of JNK 3 Inhibition
Human JNK 3 was expressed as a fusion protein (GST-JNK 3) with glutathione S-transferase (GST) in Escherichia coli and was purified using glutathione Sepharose 4B beads. The amino acid sequence 1-169 of c-Jun was […] as a fusion protein (GST-c-Jun) with GST in Escherichia coli, was purified using glutathione Sepharose 4B beads and was used as a substrate. A test compound was diluted with 100% dimethyl sulfoxide into 10 mM and was then further diluted with 10% aqueous dimethyl sulfoxide solution to yield a dilution series. To each well of 96-well OPTI plate (available from Packard) were placed 20 μl of the diluted compound, 30 μl of a substrate solution (1.2 μg of GST-c-Jun, […], 0.2 μCi of [γ-^33P]ATP, 25 mM of HEPES pH=7.5, 10 mM of magnesium acetate, and 3.33 μM of ATP), and 50 μl of an enzyme solution (0.04 μg of GST-JNK 3, 25 mM of HEPES pH=7.5, and 10 mM magnesium acetate) up to 100 μl, and the mixture was allowed to react for 30 minutes. After terminating the reaction by adding 100 μl of a reaction terminator (80 mM ATP, 5 mg/ml glutathione SPA beads (available from Amersham Pharmacia Biotech)), the reaction mixture was shaken for 30 minutes. The mixture was centrifuged at room temperature at 1000×g for 5 minutes, and the emission intensity thereof was determined on a TopCount™ illuminator (available from Packard). The activity is expressed by the 50% inhibitory concentration on the enzymatic activity of JNK, i.e., IC50 (nM).

T1 sequence (P53779 whole entry): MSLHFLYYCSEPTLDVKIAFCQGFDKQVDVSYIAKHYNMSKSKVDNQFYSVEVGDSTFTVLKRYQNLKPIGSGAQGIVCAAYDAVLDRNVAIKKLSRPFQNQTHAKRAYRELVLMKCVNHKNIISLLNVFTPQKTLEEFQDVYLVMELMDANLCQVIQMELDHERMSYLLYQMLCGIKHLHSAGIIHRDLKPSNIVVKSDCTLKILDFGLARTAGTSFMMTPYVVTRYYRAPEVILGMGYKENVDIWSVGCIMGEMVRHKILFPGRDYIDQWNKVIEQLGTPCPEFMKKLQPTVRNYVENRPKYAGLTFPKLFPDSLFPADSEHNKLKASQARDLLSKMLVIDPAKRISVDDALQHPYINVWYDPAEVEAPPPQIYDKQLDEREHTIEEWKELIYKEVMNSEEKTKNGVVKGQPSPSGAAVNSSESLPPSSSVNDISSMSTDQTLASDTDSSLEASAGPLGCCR

Compound	IC50 [nM]
OCc1cccc2c1CCc1cccc3[nH]nc-2c13 [Example 1, 6,7-Dihydro-2H-benzo[6,7]cyclohepta[cd]indazol-8-ylmethanol]	≤ 300
OCc1cccc2c1C=Cc1cccc3[nH]nc-2c13 [Example 6, 2H-Benzo[6,7]cyclohepta[cd]indazol-8-ylmethanol]	≤ 300
Nc1cccc2c1CCc1cccc3[nH]nc-2c13 [Example 8, 6,7-Dihydro-2H-benzo[6,7]cyclohepta[cd]indazole-8-amine]	≤ 300
C1=Cc2cccc3[nH]nc(c23)-c2ccccc21 [Example 9, 2H-Benzo[6,7]cyclohepta[cd]indazole]	≤ 300
O=C(NCc1ccco1)c1cccc2c1C=Cc1cccc3[nH]nc-2c13 [Example 20, N8-(2-Furylmethyl)-2H-benzo[6,7]cyclohepta[cd]indazole-8-carboxamide]	≤ 300
O=C(NC1CC1)c1cccc2c1C=Cc1cccc3[nH]nc-2c13 [Example 21, N8-Cyclopropyl-2H-benzo[6,7]cyclohepta[cd]indazole-8-carboxamide]	≤ 300
Cc1ccc2[nH]nc3c2c1NC(=O)c1ccccc1-3 [Example 25, 5-Methyl-6,7-dihydro-2H-benzo[5,6]azepino[4,3,2-cd]indazol-7-one]	≤ 300
Cc1cc(Br)c2[nH]nc3c2c1NC(=O)c1ccccc1-3 [Example 26, 3-Bromo-5-methyl-6,7-dihydro-2H-benzo[5,6]azepino[4,3,2-cd]indazol-7-one]	≤ 300
